Experimental data: patent US20250092086A1, “CELASTROL SALTS, CRYSTALLINE FORMS, AND USES THEREOF” (ERX Pharmaceuticals Inc., priority 2022, published 2025)
≈ marks a conversion by molar mass, not a printed value. Entries after “also recorded” stand apart in the source; their conditions may differ.

Tests used:
Format in all cases: physicochemical
[1] = Solubility profile of Compound 1 Form III in water, ethanol and methanol; settings: for solubility: thermodynamic from solid
Protocol: The solubility of Compound 1 Form III was measured in the following solvents: water, ethanol and methanol. The determination of the solubility profile was performed with a Thermomixer Eppendorf driving the temperature and the mixing. The stock solutions were prepared according to the USP (United States Pharmacopeia), and then about 1 mL of these stock solutions was added to the API in tubes of 2 mL.

[2] = Hygroscopicity (DVS), water sorption/desorption at 37° C.; settings: for DVS (hygroscopicity): water sorption/desorption isotherms at 37° C., 0-95% RH
Protocol: The hygroscopicity experiments were carried out with a DVS Intrinsic from S.M.S. This technique is designed to accurately measure a sample's change in mass as it sorbs precisely controlled concentrations of water vapors in an air carrier gas. The method used for DVS experiments (at 37° C.) is summarized below. • Equilibrating 10 min at 50% RH • Decreasing to 0% RH in 60 min • Equilibrating 10 min at 0% RH • Increasing to 95% RH in 280 min • Equilibrating 10 min at 95% RH • Decreasing to 50% RH in 100 min • Equilibrating 20 min at 50% RH
(§1) The hygroscopic experiments were carried out with a DVS Intrinsic from S.M.S. This technique is designed to accurately measure a sample's change in mass as it sorbs precisely controlled concentrations of water vapors in an air carrier gas. All the methods used for DVS experiments are summarized below. It should be noticed that the temperature and relative humidity (RH) are pre-set according to the initial temperature and RH.
• Equilibrating 120 min at 50% RH • Decreasing to 0% RH in 60 min • Equilibrating 150 min at 0% RH • Increasing to 95% RH in 200 min • Equilibrating 360 min at 95% RH • Decreasing to 50% RH in 100 min • Equilibrating 150 min at 50% RH
as §1, with “hygroscopicity” for “hygroscopic”, “below, and it” for “below. It”
as §1, with “hygroscopicity” for “hygroscopic”

[3] = XRPD under temperature and relative humidity; settings: for XRPD under temperature: impact / new crystalline phase: 25 to 100° C., RH set at 30%; for XRPD under relative humidity: impact / new crystalline phase: RH 10 to 80-90% at 40° C.
Protocol: Method 1: influence of temperature at ambient RH. RH was set at 30% in order to simulate a RH near from the ambient RH, and the temperature studied were 25-[…]-100° C.
Method 2: influence on RH at 40° C. The RH studied was at 10-30-80%.
These experiments studied the influence of temperature at ambient RH. RH was wet at 30% in order to simulate a RH near from the ambient RH, and the temperatures studied were 25-50-100° C.
These experiments studied the influence on RH at 40° C. The RH studied were 10-30-88%.
Using Method 1, the influence of temperature at ambient RH was studied. RH was set at 30% in order to simulate a RH near from the ambient RH, and the temperatures studied were 25-50-100° C. FIG. 24 provides the XRPD pattern representing the influence of temperature on Compound 1 Form I.
Using Method 2, the influence on RH at 40° C. was studied. The RH studied were 10-30-90%.
Using Method 1, the influence of temperature at ambient RH was studied. RH was set at 30% in order to simulate a RH near from the ambient RH. Temperature studied: 25-50-100° C.
Using Method 2, the influence on RH at 40° C. was studied at 10-30-90%.

[4] = pH solubility profile at 37° C. of Compound 1 Form III
Protocol: All the buffer solutions were prepared according to the U.S.P namely hydrochloric acid buffer for pH=2.0, acid phthalate buffer for pH=4.0, phosphate buffer for pH=6.0, alkaline borate buffer for pH=8.0, which correspond to the native pH. At the end of the solubility study, the pH of the solutions were controlled again (final pH) to determine any variation. The solubility was measured at 37° C. The maximum concentration limit was set at 100 g/L max to minimize consumption of the tested compound.

[5] = Polymorph screening, cooling experiments (solubility of Form III in screening solvents); settings: all solvents tested with the exception of dichloromethane, even at high temperature
Protocol: Solutions of Compound 1 Form III were prepared at respectively 50 and 150 g/L in each solvent. Heat was applied when necessary to get a solution. Once a solution was obtained, the vials were cooled down to 10° C.

## CC1=C(O)C(=O)C=C2C1=CC=C1[C@@]2(C)CC[C@@]2(C)[C@@H]3C[C@](C)(C(=O)O)CC[C@]3(C)CC[C@]12C [Compound 1 Form III, 3-hydroxy-9β,13α-dimethyl-2-oxo-24,25,26-trinoroleana-1(10),3,5,7-tetraen-29-oic acid]
[1]; 30 °C, water, 10, 30 and 50° C.
  solubility: < 1 mg/mL
[1]; ethanol
  Solubility profile: ethanol (description): Ethanol: Soluble
[1]; methanol
  Solubility profile: methanol (description): Methanol: Sparingly Soluble
[1]; organic solvent or mixture, ethanol, 10° C.
  solubility: 33 to 38 mg/mL (≈ 73.2 to 84.3 mM)
[1]; organic solvent or mixture, ethanol, 30° C.
  solubility: 33 to 38 mg/mL (≈ 73.2 to 84.3 mM)
[1]; organic solvent or mixture, ethanol, 50° C.
  solubility: 33 to 38 mg/mL (≈ 73.2 to 84.3 mM)
[1]; organic solvent or mixture, methanol, 10° C.
  solubility: 27 to 33 mg/mL (≈ 59.9 to 73.2 mM)
[1]; organic solvent or mixture, methanol, 30° C.
  solubility: 27 to 33 mg/mL (≈ 59.9 to 73.2 mM)
[1]; organic solvent or mixture, methanol, 50° C.
  solubility: 27 to 33 mg/mL (≈ 59.9 to 73.2 mM)
[1]; water
  Solubility profile: water (description): Water: Very slightly soluble
[2]; DVS, 37° C.
  Hysteresis observed with the final mass at 50% RH: No hysteresis
  Mass decrease as RH was lowered to 0%: ~0.06%
  Mass increase as RH was increased to 95%: ~0.09%
  Water uptake, water sorption/desorption isotherms: < 0.2%
[2]
  DVS (hygroscopicity): non-hygroscopic
[2]; listed as FIII
  DVS (hygroscopicity): Not hygroscopic
[2]; listed as Form III
  DVS (hygroscopicity): nonhygroscopicity; also recorded: Non hygroscopic compound
[3]
  XRPD under temperature: impact / new crystalline phase: stable
  XRPD under relative humidity: impact / new crystalline phase: stable
[3]; listed as FIII
  XRPD under temperature: impact / new crystalline phase: =>No new crystalline
  XRPD under relative humidity: impact / new crystalline phase: =>No new crystalline
[4]; USP buffer solutions, aqueous buffer, thermodynamic from solid, USP buffers, native pH 2.0, 4.0, 6.0 and 8.0, read-out: Solubility range
  solubility: < 1 mg/mL
[4]; pH 2.0 to 8.0
  pH solubility profile, description form: very slight solubility; also recorded: Very slightly
[4]; pH 2.0 to 8.0, listed as Form III
  pH solubility profile, description form: From pH = 2 to pH = 8: very slightly soluble
[5]
  Solubility in the screening solvents: low solubility
